Values belong to the compound of their own block, whether it stands above or below them.
Legend:
[1] = Krafft point: lowest temperature at which cloudiness is observed in a 1% by weight surfactant solution; assay type: physicochemical; settings: 1% by weight solution; upper bound, solution observed clear at stated temperature
Source text: The Krafft temperature is the minimum temperature at which surfactants form micelles. […] Below the Krafft temperature, there is no value for the critical micelle concentration (CMC), i.e., surfactant micelles will not form. A portion of the surfactant exists as a precipitate and the mixture of surfactant and water will appear cloudy or have an obvious phase settled at the bottom of a sample below the Krafft temperature. We consider only surfactants or mixtures of surfactants with Krafft temperatures at or below 20° C., so it suffices to verify that the surfactant mixtures of interest are completely soluble at 20° C. We verified this for the commercial surfactant solutions of interest. In particular, we have verified that the Krafft temperature for mixtures of sodium lauryl-1-ether sulfate and cocoamidopropyl betaine, and for mixtures of the commercial blend known as Miracare SLB lies below 20° C.
Our operational definition of Krafft point here is the lowest temperature at which cloudiness is observed in a 1% by weight solution of surfactant. The table indicates the upper bound on Krafft point, i.e., solution observed to be clear at stated temperature.

[2] = typical anionic surfactant; cited from earlier work
[3] = Solubility of lipid in 5% surfactant solution, Method B absorbance at 500 nm; assay type: physicochemical; settings: 5% Miracare SLB, pH 6.0, Method B
Source text: Stock solutions of lipid in 5% surfactant solution were mixed in a beaker with an overhead mixer at a temperature above the melting point of the lipid for about an hour. The surfactant solution pH was adjusted to the desired range (usually 6 to 6.6) prior to addition of the lipid. Generally, the lipid concentrations in the stock solutions were at 1% to 2% by weight of solution. The stock solutions were allowed to cool to room temperature. These stock solutions were well above the solubility limit of the lipid as evidenced by considerable cloudiness. The stock solution was gently stirred to achieve a uniform suspension of the lipid insoluble matter, and then added to several small vials (approximately 20 ml capacity) in predetermined amounts. […] In some cases, we have determined solubility by analyzing a dilution series of samples using a UV-Vis 96 spectrophotometer (Spectra Max, Model 340pc). The samples of the dilution series were pipeted into a well plate reader and inserted into the spectrophotometer, which measured absorbance at a wavelength of 500 nm. The solubility limit was determined by extrapolating the absorbance readings to the baseline.

[4] = Solubility of lipid in 5% surfactant solution, Method A visual observation; assay type: physicochemical
Source text: (room temperature). The solubility is a function of pH, and increases with increasing pH, but the long chain fatty acids and other lipids (e.g., cholesterol and related sterols and ceramides) and lipid mimics (e.g., saturated long chain alcohols) still have limited solubility in the surfactant solutions, especially in the pH range of interest, pH less than or equal to 8. Solubility can be determined by visual observation of a series of solutions that were allowed to equilibrate at room temperature for approximately 48 hours. We also determined solubility by absorbance of light at a particular wavelength, where we have used a UV-Vis 96 spectrophotometer well plate reader (Spectra Max, 340 pc Model) with the wavelength set at 500 nm. […] The surfactant solution pH was adjusted to the desired range (usually 6 to 6.6) prior to addition of the lipid. […] In some cases, we have determined solubility by analyzing a dilution series of samples using a UV-Vis 96 spectrophotometer (Spectra Max, Model 340pc). The samples of the dilution series were pipeted into a well plate reader and inserted into the spectrophotometer, which measured absorbance at a wavelength of 500 nm. The solubility limit was determined by extrapolating the absorbance readings to the baseline. These values are reported in Table 2 as determined by Method B.

Krafft T [1]: <15 °C
Compound: Sodium tridecethsulfate [Trideceth Sulfate (TDS)]

Compound: CCCCCCCCCCCCOS(=O)(=O)[O-].[Na+] [sodium dodecyl sulfate]
Krafft temperature [2]: 18.4 °C

Compound: CC(C)CCC[C@@H](C)[C@H]1CC[C@H]2[C@@H]3CC=C4C[C@@H](O)CC[C@]4(C)[C@H]3CC[C@]12C [Cholesterol]
Solubility Limit [3]: ~5 × 10^−3 weight fraction of total solution

Compound: CCCCCCCCCCCC(=O)O [Lauric acid]
solubility ([4]; in 5 wt. % SLES1EO/CAPBet solution): approximately 0.08 wt. %
solubility as share of the surfactant weight ([4]; in a 5 wt. % surfactant solution): approximately 16%

From patent publication US20100062961A1, “Good Foaming Creamy or Paste-Like Cleansers Comprising Floor Levels of Long Chain Lipids or Lipid Mimics” (CONOPCO, INC., D/B/A UNILEVER, priority 2008, published 2010)
